In EP0143987A1, “Therapeutic compositions endowed with antiviral activity” (Stendardi, Anna Gioia, priority 1983, dated 1985):

Key:
[1] = tested on: herpex simplex virus type 1 (ATCC VR-733); assay: plaque reduction test in Vero cells; type: cell-based; conditions: mean of three samples, 72 hours, untreated control 134 plaques
Experimental: The mutual synergistic activity of acyclovir and BVDU was evaluated on the herpex simplex virus type 1 (ATCC VR-733), grown in Vero cells (ATCC CCL 81) in MEM T-199 containing 2% calf serum.
The method used was the plaque reduction test /P. Collins et al. (1977) Annals, of the New York Academy of Sciences 284, pp. 49-59/. For this purpose, confluent monolayers of Vero cells, seeded in multi-well plates (diameter 3.5 cm) at a concentration of […] cells/plate, were infected with 150 plaque-forming units (PFU) of HSV-1 per plate.
After an adsorption period of one hour at room temperature and removal of the unadsorbed virus, the monolayers were washed with buffered saline solution and then incubated at 35°C, in 5% CO2, in MEM T-199 containing 2% calf serum and 0.75% carboxymethylcellulose, both in the absence and in the presence of the inhibitors.
72 hours later, the infected monolayers were washed three times with saline solution and dyed with a 0.1% methylene blu solution in order to be able to count the number of lysis plaques resulting from the multiplication of the virus.
The number represent the mean value of three samples, and correspond to the number of plaques obtained in the absence or in the presence of acyclovir and BVDU, used either individually or in association.
The above values were then expressed as percentage of the number of plaques obtained in untreated control cultures and plotted, in the ordinate axis, against the logarithm of the concentration used (in abscissa).
This enabled to determine the concentration of the two drugs (alone or in combination) which were necessary for reducing the number of viral plaques by 100% (ID100) […]

[2] = tested on: type 2 (HSV-2) herpes simplex viruses; conditions: background statement; cited from earlier work
[3] = tested on: type 1 (HSV-1) herpes simplex viruses; conditions: background statement; cited from earlier work
HSV-1 = assay: appearance of resistant HSV-1 mutants following treatment; type: cell-based; conditions: for Resistant mutants/10^4 viruses: plaques counted 72 hours later; for HSV-1 mutants resistant, pre-existing within the virus population: approximate restatement of Table 2 (drugs used individually)
Experimental: Finally, tests were carried out which aimed at quantifying the appearance of resistant HSV-1 mutants following treatment with acyclovir and BVDU, used individually or in association. For these tests the two compounds were used in concentrations which were 3.3 times (acyclovir) and 1.4 times (BVDU) the ID 100 value, so as to be able to completerly prevent the multiplication of sensitive viruses. For this 5 purpose, […] Vero cells, infected with HSV-1 at a multiplicity of 0.3 PFU/cell, were seeded on a preformed monolayer of uninfected Vero cells and left to adhere for 4 hours at 35°C in T-199 with 2% serum, in the presence of the inhibitors.
The liquid culture medium was then removed and replaced with new medium containing the inhibitors and 0.75% carboxymethylcellulose.
The number of plaques developed following multiplication of resistant viruses was determined 72 hours later.

Compound	number of plaques ([1]; Acyclovir 0.075 µM alone)	number of plaques ([1]; Acyclovir 0.15 µM alone)	number of plaques ([1]; Acyclovir 0.3 µM alone)	number of plaques ([1]; Acyclovir 0.6 µM alone)	number of plaques ([1]; Acyclovir 1.2 µM alone)	inhibition of the multiplication of HSV-2 [2]	inhibition of the multiplication of HSV-1 [3]	Resistant mutants/10^4 viruses (HSV-1; Acyclovir 2.5 μM alone)	HSV-1 mutants resistant, pre-existing within the virus population (HSV-1)	number of plaques ([1]; BVDU 0.01 µM alone)	number of plaques ([1]; BVDU 0.02 µM alone)	number of plaques ([1]; BVDU 0.04 µM alone)	number of plaques ([1]; BVDU 0.8 µM alone)	Resistant mutants/10^4 viruses (HSV-1; BVDU 1.0 μM alone)
Nc1nc2c(ncn2COCCO)c(=O)[nH]1 [Acyclovir, 9-(2-hydroxyethoxymethyl) guanine]	111	99	52	8	0	inhibits to an equal extent	inhibits to an equal extent	28.6 /10^4 viruses	~3 per 1000 sensitive viruses	–	–	–	–	–
O=c1[nH]c(=O)n([C@H]2C[C@H](O)[C@@H](CO)O2)cc1/C=C/Br [BVDU, E-5-(2-bromovinyl)-2'-deoxyuridine]	–	–	–	–	–	not against HSV-2	effective against HSV-1	–	~1 per 1000 sensitive viruses	141	131	109	81	13.8 /10^4 viruses
